Calls of active or inactive are those of the source. The rule behind the calls is not given here.
Experiments:
MDCK = assay: Cytotoxicity against dog MDCK cells assessed as reduction in cell viability at 100 uM incubated for 40 hrs by celltiter-glo assay; format: toxicity, cell-based, Canis lupus familiaris
Influenza A virus [1] = assay: Antiviral activity against Influenza A virus H1N1 infected in MDCK cells assessed as inhibition of viral growth at 100 uM relative to control; format: functional
Influenza A virus [2] = assay: Antiviral activity against influenza A virus A/WSN/33(H1N1) infected in MDCK cells assessed as inhibition of viral-induced cytopathic effect pretreated with cells followed by viral infection and measured after 40 hrs by fluorescence based microplate reader analysis; format: functional, organism-based
[3] = Cytotoxicity against dog MDCK cells assessed as reduction in cell viability incubated for 40 hrs by celltiter-glo assay; format: toxicity, cell-based, Canis lupus familiaris
[4] = Selectivity index, ratio of CC50 for dog MDCK cells to IC50 for influenza A virus A/WSN/33(H1N1) infected in MDCK cells; format: toxicity, cell-based; settings: read-out: Selectivity Index
Influenza A virus [5] = assay: Antiviral activity against Influenza A virus A/WSN/33(H1N1) infected in female BALB/c kunming mouse assessed as reduction in lung index at 12.5 mg/kg/day, administered intranasally once per day for 7 days starting from 24 hrs post-viral infection and measured daily; format: functional; settings: time 7 day
Influenza A virus [6] = assay: Antiviral activity against Influenza A virus A/WSN/33(H1N1) infected in female BALB/c kunming mouse assessed as reduction in severe pneumonia at 10 mg/kg/day, administered intranasally once per day for 7 days starting from 24 hrs post-viral infection and measured daily; format: functional, organism-based; settings: time 7.0 day
Influenza A virus [7] = assay: Antiviral activity against Influenza A virus A/WSN/33(H1N1) infected in female BALB/c kunming mouse assessed as reduction in immune cell infiltration at 10 mg/kg/day, administered intranasally once per day for 7 days starting from 24 hrs post-viral infection and measured daily; format: functional, organism-based; settings: time 7.0 day

In the case of `CC1(C)CC[C@]2(C(=O)NCc3cn([C@@H]4O[C@H](CO)[C@@H](O)[C@H](O)[C@H]4O)nn3)CC[C@]3(C)C(=CC[C@@H]4[C@@]5(C)CC[C@H](OC(=O)NCCCCCc6cn(CC(CO)(Cn7cc(CCCCCNC(=O)O[C@H]8CC[C@]9(C)[C@H]%10CC=C%11[C@@H]%12CC(C)(C)CC[C@]%12(C(=O)NCc%12cn([C@@H]%13O[C@H](CO)[C@@H](O)[C@H](O)[C@H]%13O)nn%12)CC[C@@]%11(C)[C@]%10(C)CC[C@H]9C8(C)C)nn7)Cn7cc(CCCCCNC(=O)O[C@H]8CC[C@]9(C)[C@H]%10CC=C%11[C@@H]%12CC(C)(C)CC[C@]%12(C(=O)NCc%12cn([C@@H]%13O[C@H](CO)[C@@H](O)[C@H](O)[C@H]%13O)nn%12)CC[C@@]%11(C)[C@]%10(C)CC[C@H]9C8(C)C)nn7)nn6)C(C)(C)[C@@H]5CC[C@]43C)[C@@H]2C1`, the Activity (MDCK) is reported as “Non-toxic”, the inhibition at 100 µM (Influenza A virus [1]) is reported as over 75% and the IC50 (Influenza A virus [2]) is reported as 5.99 µM. It also gave a CC50 at 40 h [3] of over 100 µM and a selectivity ratio [4] of over 16.7.

In the case of `CC(=O)OC[C@H]1O[C@@H](n2cc(CNC(=O)[C@]34CCC(C)(C)C[C@H]3C3=CC[C@@H]5[C@@]6(C)CC[C@H](OC(=O)NCCCc7cn(CC(CO)(Cn8cc(CCCNC(=O)O[C@H]9CC[C@]%10(C)[C@H]%11CC=C%12[C@@H]%13CC(C)(C)CC[C@]%13(C(=O)NCc%13cn([C@@H]%14O[C@H](COC(C)=O)[C@@H](OC(C)=O)[C@H](OC(C)=O)[C@H]%14OC(C)=O)nn%13)CC[C@@]%12(C)[C@]%11(C)CC[C@H]%10C9(C)C)nn8)Cn8cc(CCCNC(=O)O[C@H]9CC[C@]%10(C)[C@H]%11CC=C%12[C@@H]%13CC(C)(C)CC[C@]%13(C(=O)NCc%13cn([C@@H]%14O[C@H](COC(C)=O)[C@@H](OC(C)=O)[C@H](OC(C)=O)[C@H]%14OC(C)=O)nn%13)CC[C@@]%12(C)[C@]%11(C)CC[C@H]%10C9(C)C)nn8)nn7)C(C)(C)[C@@H]6CC[C@@]5(C)[C@]3(C)CC4)nn2)[C@H](OC(C)=O)[C@@H](OC(C)=O)[C@@H]1OC(C)=O`, the Activity (MDCK) is reported as “Non-toxic”, the inhibition at 100 µM (Influenza A virus [1]) is reported as over 75% and the IC50 (Influenza A virus [2]) is reported as 4.61 µM. It also gave a CC50 at 40 h [3] of over 100 µM and a selectivity ratio [4] of over 21.7.

In the case of `CC1(C)CC[C@]2(C(=O)NCc3cn([C@@H]4O[C@H](CO)[C@@H](O)[C@H](O)[C@H]4O)nn3)CC[C@]3(C)C(=CC[C@@H]4[C@@]5(C)CC[C@H](OC(=O)NCCCc6cn(Cc7cc(Cn8cc(CCCNC(=O)O[C@H]9CC[C@]%10(C)[C@H]%11CC=C%12[C@@H]%13CC(C)(C)CC[C@]%13(C(=O)NCc%13cn([C@@H]%14O[C@H](CO)[C@@H](O)[C@H](O)[C@H]%14O)nn%13)CC[C@@]%12(C)[C@]%11(C)CC[C@H]%10C9(C)C)nn8)cc(Cn8cc(CCCNC(=O)O[C@H]9CC[C@]%10(C)[C@H]%11CC=C%12[C@@H]%13CC(C)(C)CC[C@]%13(C(=O)NCc%13cn([C@@H]%14O[C@H](CO)[C@@H](O)[C@H](O)[C@H]%14O)nn%13)CC[C@@]%12(C)[C@]%11(C)CC[C@H]%10C9(C)C)nn8)c7)nn6)C(C)(C)[C@@H]5CC[C@]43C)[C@@H]2C1`, the Activity (MDCK) is reported as “Non-toxic”, the inhibition at 100 µM (Influenza A virus [1]) is reported as over 75% and the IC50 (Influenza A virus [2]) is reported as 43.9 µM. The CC50 at 40 h [3] was over 100 µM and the selectivity ratio [4] was over 2.28.

In the case of `CC1(C)CC[C@]2(C(=O)NCc3cn([C@@H]4O[C@H](CO)[C@@H](O)[C@H](O)[C@H]4O)nn3)CC[C@]3(C)C(=CC[C@@H]4[C@@]5(C)CC[C@H](OC(=O)NCCc6cn(Cc7cc(Cn8cc(CCNC(=O)O[C@H]9CC[C@]%10(C)[C@H]%11CC=C%12[C@@H]%13CC(C)(C)CC[C@]%13(C(=O)NCc%13cn([C@@H]%14O[C@H](CO)[C@@H](O)[C@H](O)[C@H]%14O)nn%13)CC[C@@]%12(C)[C@]%11(C)CC[C@H]%10C9(C)C)nn8)cc(Cn8cc(CCNC(=O)O[C@H]9CC[C@]%10(C)[C@H]%11CC=C%12[C@@H]%13CC(C)(C)CC[C@]%13(C(=O)NCc%13cn([C@@H]%14O[C@H](CO)[C@@H](O)[C@H](O)[C@H]%14O)nn%13)CC[C@@]%12(C)[C@]%11(C)CC[C@H]%10C9(C)C)nn8)c7)nn6)C(C)(C)[C@@H]5CC[C@]43C)[C@@H]2C1`, the Activity (MDCK) is reported as “Non-toxic”, the inhibition at 100 µM (Influenza A virus [1]) is reported as over 75% and the IC50 (Influenza A virus [2]) is reported as 20.1 µM. For the same compound, the CC50 at 40 h [3] was over 100 µM and the selectivity ratio [4] was over 4.97.

With `CC1(C)CC[C@]2(C(=O)NCc3cn([C@@H]4O[C@H](CO)[C@@H](O)[C@H](O)[C@H]4O)nn3)CC[C@]3(C)C(=CC[C@@H]4[C@@]5(C)CC[C@H](O)C(C)(C)[C@@H]5CC[C@]43C)[C@@H]2C1` the Activity (MDCK) was “Non-toxic”, the inhibition at 100 µM (Influenza A virus [1]) was over 75% and the IC50 (Influenza A virus [2]) was 1.36 µM. The CC50 at 40 h [3] was over 100 µM, the selectivity ratio [4] was over 73.5 and the Activity_index (Influenza A virus [5]) was 1.4. For the same compound, the Activity (Influenza A virus [6]) was “Active” and the Activity (Influenza A virus [7]) was “Active”.

With `CC1(C)CC[C@]2(C(=O)NCc3cn([C@@H]4O[C@H](CO)[C@@H](O)[C@H](O)[C@H]4O)nn3)CC[C@]3(C)C(=CC[C@@H]4[C@@]5(C)CC[C@H](OC(=O)NCCCc6cn(CC(CO)(Cn7cc(CCCNC(=O)O[C@H]8CC[C@]9(C)[C@H]%10CC=C%11[C@@H]%12CC(C)(C)CC[C@]%12(C(=O)NCc%12cn([C@@H]%13O[C@H](CO)[C@@H](O)[C@H](O)[C@H]%13O)nn%12)CC[C@@]%11(C)[C@]%10(C)CC[C@H]9C8(C)C)nn7)Cn7cc(CCCNC(=O)O[C@H]8CC[C@]9(C)[C@H]%10CC=C%11[C@@H]%12CC(C)(C)CC[C@]%12(C(=O)NCc%12cn([C@@H]%13O[C@H](CO)[C@@H](O)[C@H](O)[C@H]%13O)nn%12)CC[C@@]%11(C)[C@]%10(C)CC[C@H]9C8(C)C)nn7)nn6)C(C)(C)[C@@H]5CC[C@]43C)[C@@H]2C1` the Activity (MDCK) was “Non-toxic”, the inhibition at 100 µM (Influenza A virus [1]) was over 75% and the IC50 (Influenza A virus [2]) was 3.93 µM. For the same compound, the CC50 at 40 h [3] was over 100 µM and the selectivity ratio [4] was over 25.5.

In the case of `CC(=O)OC[C@H]1O[C@@H](n2cc(CNC(=O)[C@]34CCC(C)(C)C[C@H]3C3=CC[C@@H]5[C@@]6(C)CC[C@H](OC(=O)NCCCCCc7cn(CC(CO)(Cn8cc(CCCCCNC(=O)O[C@H]9CC[C@]%10(C)[C@H]%11CC=C%12[C@@H]%13CC(C)(C)CC[C@]%13(C(=O)NCc%13cn([C@@H]%14O[C@H](COC(C)=O)[C@@H](OC(C)=O)[C@H](OC(C)=O)[C@H]%14OC(C)=O)nn%13)CC[C@@]%12(C)[C@]%11(C)CC[C@H]%10C9(C)C)nn8)Cn8cc(CCCCCNC(=O)O[C@H]9CC[C@]%10(C)[C@H]%11CC=C%12[C@@H]%13CC(C)(C)CC[C@]%13(C(=O)NCc%13cn([C@@H]%14O[C@H](COC(C)=O)[C@@H](OC(C)=O)[C@H](OC(C)=O)[C@H]%14OC(C)=O)nn%13)CC[C@@]%12(C)[C@]%11(C)CC[C@H]%10C9(C)C)nn8)nn7)C(C)(C)[C@@H]6CC[C@@]5(C)[C@]3(C)CC4)nn2)[C@H](OC(C)=O)[C@@H](OC(C)=O)[C@@H]1OC(C)=O`, the Activity (MDCK) is reported as “Non-toxic”, the inhibition at 100 µM (Influenza A virus [1]) is reported as over 75% and the IC50 (Influenza A virus [2]) is reported as 24.9 µM. The CC50 at 40 h [3] was over 100 µM and the selectivity ratio [4] was over 4.02.

From ChEMBL document CHEMBL6078640, “Trivalent oleanolic acid-glucose conjugates: Synthesis and efficacy against Influenza A virus” (Eur J Med Chem, 2024)
